Assay results taken from US3947589A (priority 1971, dated 1976).
Read-outs that look alike come from different tables or passages of the source.

Assays:
citrus melanose = assay: inhibitory test against Citrus melanose; type: in vivo; conditions: for pest or weed control at 500 ppm: read-out: Preventive value; for Extent infection: Table 4, untreated 53; for Extent infection / Extent of infection: 500 ppm, about 2-3 weeks after inoculation; for Extent of infection: Table 5, untreated 57
Excerpt: Experimental example 3 : inhibitory test against Citrus melanose a. Test plant: shoots of about 3 years grown seedlings of citrus "Onshu" (2 - 4 trees planted in about 20 cm claypot) b. Solution used for test
As control fungicide, "Daisen" [trade (trade name, product of Nihon-NohyakuCo., Ltd., wettable powder containing zinc ethylene bis (dithiocarbamate)]was sprayed at 1000 ppm. c. Inoculum and the method of inoculation
In order to prepare suspension of pycnospores, distilled and sterilized water was poured on the culture twigs with citrus melanose in a test tube. The suspension containing about 200 of pycnospores was prepared under the observation of microscope of 150 magnification and then sprayed inoculation on the test plants treated as above. After inoculation, the test plants were placed in the inoculation box at 27°C and relative humidity of above 95% for about 3 days. Then, they were transferred into the greenhouse. […]
d. The method of inspection
About 2 - 3 weeks after inoculation, the entire leaves of shoots was inspected for the development of disease and the state of infection was evaluated on a scale of 0 to 3 as follows:
1 : 1 -- 50 of disease spots
2 : 51 -- 150 of disease spots
3 : above 151 of disease spots
The extent of infection and the preventive value were calculated according to the following equations (I) and (II), respectively. [formula] wherein n1, n2 and n3 are number of leaves inspected to be the states of infection 1, 2 and 3, respectively and N is the total number of leaves. [formula]

[1] = test system: Piricularia oryzae (rice blast); conditions: 500 ppm
[2] = test system: Piricularia oryzae (rice blast); assay: whole plant or invertebrate; conditions: Pyricularia oryzae, 48 h, read-out: Preventive value
[3] = test system: cucumber downy mildew (Pseudoperonospore cubensis); assay: inhibitory test against cucumber downy mildew; type: in vivo; conditions: for pest or weed control at 500 ppm: Cucumis sativus; for Number of leaves infected (outside) / Number of leaves infected (inside): 23rd of May
Procedure: Experimental example 4 : inhibitory test against cucumber downy mildew
Cucumber seeds (variety "Shinhikari No. A") were planted in seed-beds at the biginning of October, three cucumber seeds being planted per seed-bed, and they were grown in a greenhouse made of vinyl resin. This experiment was performed as three-repeated cultivation.
The test plants treated thus were left to spontaneous infection.

[4] = Table 4, about 2-3 weeks after inoculation
[5] = Table 1, 50 ml per pot, two days after infection, untreated 33.0
[6] = Table 6, 500 ppm, four sprays, inside of leaves, read-out: Preventive value (inside)
[7] = Table 6, 500 ppm, four sprays, outside of leaves, read-out: Preventive value (outside)
[8] = Table 6, 500 ppm, four sprays, untreated 12
[9] = Table 6, 500 ppm, four sprays, untreated 22
[10] = Table 5, about 2-3 weeks after inoculation
[11] = Table 7, 500 ppm, four sprays, inside of leaves, read-out: Preventive value (inside)
[12] = Table 7, 500 ppm, four sprays, outside of leaves, read-out: Preventive value (outside)
[13] = Table 7, 500 ppm, four sprays, untreated 13
[14] = Table 7, 500 ppm, four sprays, untreated 15

SMILES: C=CCCCCCCCCC(=O)N[C@@H](CC(C)C)C(=O)O [compound 14]
- pest or weed control at 500 ppm (citrus melanose; [4]): 65%
- Extent infection (citrus melanose): 19%
- Average number of disease lesions per leaf [1, 5]: 5.6
- pest or weed control at 500 ppm [2]: 83%

SMILES: CCCCCCCCCCCC(=O)N[C@@H](CC(C)C)C(=O)O [compound 13]
- pest or weed control at 500 ppm [3, 6]: 59%
- pest or weed control at 500 ppm [3, 7]: 42%
- Number of leaves infected (outside) [3, 8]: 7
- Number of leaves infected (inside) [3, 9]: 9
- Average number of disease lesions per leaf [1, 5]: 8.9
- pest or weed control at 500 ppm [2]: 73%

SMILES: CCCCCCCCCCCC(=O)NCC(=O)O [compound 1]
- pest or weed control at 500 ppm (citrus melanose; [4]): 72%
- Extent infection (citrus melanose): 15%
- pest or weed control at 500 ppm [3, 6]: 73%
- pest or weed control at 500 ppm [3, 7]: 67%
- Number of leaves infected (outside) [3, 8]: 4
- Number of leaves infected (inside) [3, 9]: 6
- Average number of disease lesions per leaf [1, 5]: 1.7
- pest or weed control at 500 ppm [2]: 95%

SMILES: CCCCCCCCCCCCCC(=O)N[C@@H](CCCCN)C(=O)OC [compound 23]
- pest or weed control at 500 ppm (citrus melanose; [10]): 64%
- Extent of infection (citrus melanose): 21%
- pest or weed control at 500 ppm [3, 11]: 47%
- pest or weed control at 500 ppm [3, 12]: 45%
- Number of leaves infected (outside) [3, 13]: 7
- Number of leaves infected (inside) [3, 14]: 8
- Average number of disease lesions per leaf ([1]; Table 2, untreated 34.2): 6.2
- pest or weed control at 500 ppm [2]: 82%

SMILES: CCCCCCCCCCCC(=O)N[C@H](C(=O)OCC)C(C)C [compound 19]
- Average number of disease lesions per leaf [1, 5]: 7.3
- pest or weed control at 500 ppm [2]: 78%

SMILES: CCCCCCCC/C=C\CCCCCCCC(=O)NCC(=O)O [compound 5]
- Average number of disease lesions per leaf [1, 5]: 11.0
- pest or weed control at 500 ppm [2]: 67%

SMILES: CCCCCCCCCCCCCC(=O)NCC(=O)O [compound 9]
- pest or weed control at 500 ppm [3, 6]: 59%
- pest or weed control at 500 ppm [3, 7]: 42%
- Number of leaves infected (outside) [3, 8]: 7
- Number of leaves infected (inside) [3, 9]: 9
- Average number of disease lesions per leaf [1, 5]: 9.9
- pest or weed control at 500 ppm [2]: 70%

SMILES: CCCCCCCCCCCCCCCCCC(=O)N[C@@H](CCCNC(=N)N)C(=O)OCC [compound 28]
- pest or weed control at 500 ppm (citrus melanose; [10]): 73%
- Extent of infection (citrus melanose): 15%
- Average number of disease lesions per leaf ([1]; Table 2, untreated 34.2): 7.3
- pest or weed control at 500 ppm [2]: 78%

SMILES: CCCCCCCCCCCC(=O)N[C@@H](CCCNC(N)=O)C(=O)OC [compound 26]
- Average number of disease lesions per leaf ([1]; Table 2, untreated 34.2): 6.2
- pest or weed control at 500 ppm [2]: 82%

SMILES: CCCCCCCCCCCCCC(=O)N[C@@H](Cc1c[nH]cn1)C(=O)OC [compound 25]
- Average number of disease lesions per leaf ([1]; Table 2, untreated 34.2): 5.1
- pest or weed control at 500 ppm [2]: 85%

SMILES: CCCCCCCCCCCCCC(=O)N[C@@H](CCCNC(=N)N)C(=O)OCC [compound 21]
- pest or weed control at 500 ppm (citrus melanose; [10]): 73%
- Extent of infection (citrus melanose): 15%
- pest or weed control at 500 ppm ([3]; read-out: Preventive value (inside)): 47%
- pest or weed control at 500 ppm ([3]; read-out: Preventive value (outside)): 55%
- Number of leaves infected (outside) [3, 13]: 5
- Number of leaves infected (inside) [3, 14]: 8
- Average number of disease lesions per leaf ([1]; Table 2, untreated 34.2): 8.5
- pest or weed control at 500 ppm [2]: 75%

SMILES: CCCCCCCCCCCCCC(=O)N[C@@H](CCC(=O)O)C(=O)O [compound 20]
- Average number of disease lesions per leaf [1, 5]: 9.9
- pest or weed control at 500 ppm [2]: 70%

SMILES: CCCCCCCCCC(=O)NC(CCSC)C(=O)O (centres unmarked) [compound 16]
- pest or weed control at 500 ppm (citrus melanose; [4]): 54%
- Extent infection (citrus melanose): 24%
- Average number of disease lesions per leaf [1, 5]: 11.0
- pest or weed control at 500 ppm [2]: 67%

SMILES: CCCCCCCCCCCC(=O)NC(Cc1ccc([N+](=O)[O-])cc1)C(=O)O (centres unmarked) [compound 3]
- pest or weed control at 500 ppm (citrus melanose; [4]): 50%
- Extent infection (citrus melanose): 26%
- pest or weed control at 500 ppm [3, 6]: 59%
- pest or weed control at 500 ppm [3, 7]: 50%
- Number of leaves infected (outside) [3, 8]: 6
- Number of leaves infected (inside) [3, 9]: 9
- Average number of disease lesions per leaf [1, 5]: 8.9
- pest or weed control at 500 ppm [2]: 73%

SMILES: CCCCCCCCCCCCCCCCCC(=O)NC(C)C(=O)O (centres unmarked) [compound 7]
- pest or weed control at 500 ppm [3, 6]: 64%
- pest or weed control at 500 ppm [3, 7]: 58%
- Number of leaves infected (outside) [3, 8]: 5
- Number of leaves infected (inside) [3, 9]: 8
- Average number of disease lesions per leaf [1, 5]: 5.9
- pest or weed control at 500 ppm [2]: 82%

SMILES: CCCCCCCCCC(=O)N[C@@H](Cc1ccccc1)C(=O)O [compound 12]
- pest or weed control at 500 ppm [3, 6]: 73%
- pest or weed control at 500 ppm [3, 7]: 67%
- Number of leaves infected (outside) [3, 8]: 4
- Number of leaves infected (inside) [3, 9]: 6
- Average number of disease lesions per leaf [1, 5]: 11.6
- pest or weed control at 500 ppm [2]: 65%

SMILES: CCCCCCCCCCCC(=O)NC(Cc1ccccc1)C(=O)O (centres unmarked) [compound 8]
- pest or weed control at 500 ppm (citrus melanose; [4]): 59%
- Extent infection (citrus melanose): 22%
- pest or weed control at 500 ppm [3, 6]: 68%
- pest or weed control at 500 ppm [3, 7]: 75%
- Number of leaves infected (outside) [3, 8]: 3
- Number of leaves infected (inside) [3, 9]: 7
- Average number of disease lesions per leaf [1, 5]: 11.0
- pest or weed control at 500 ppm [2]: 67%

SMILES: CCCCCCCCCCCC(=O)N[C@H](C(=O)O)C(C)C [compound 2]
- Average number of disease lesions per leaf [1, 5]: 6.6
- pest or weed control at 500 ppm [2]: 80%

SMILES: CCCCCCCCCCCC(=O)N(C)CC(=O)O [compound 15]
- Average number of disease lesions per leaf [1, 5]: 7.4
- pest or weed control at 500 ppm [2]: 88%

SMILES: CCCCCCCCCCCC(=O)N[C@H](C(=O)O)[C@@H](C)O [compound 11]
- Average number of disease lesions per leaf [1, 5]: 7.6
- pest or weed control at 500 ppm [2]: 77%

SMILES: CCCCCCCCCCCC(=O)N[C@@H](CCCN)C(=O)OC [compound 24]
- pest or weed control at 500 ppm (citrus melanose; [10]): 68%
- Extent of infection (citrus melanose): 18%
- pest or weed control at 500 ppm [3, 11]: 47%
- pest or weed control at 500 ppm [3, 12]: 52%
- Number of leaves infected (outside) [3, 13]: 6
- Number of leaves infected (inside) [3, 14]: 8
- Average number of disease lesions per leaf ([1]; Table 2, untreated 34.2): 7.3
- pest or weed control at 500 ppm [2]: 78%

SMILES: CCCCCCCCCCCC(=O)N[C@@H](CCCNC(=N)N)C(=O)OCC [compound 27]
- pest or weed control at 500 ppm (citrus melanose; [10]): 75%
- Extent of infection (citrus melanose): 14%
- pest or weed control at 500 ppm [3, 11]: 40%
- pest or weed control at 500 ppm [3, 12]: 52%
- Number of leaves infected (outside) [3, 13]: 6
- Number of leaves infected (inside) [3, 14]: 9
- Average number of disease lesions per leaf ([1]; Table 2, untreated 34.2): 6.8
- pest or weed control at 500 ppm [2]: 80%

SMILES: CCCCCCCCCCCCCCCCCC(=O)NCC(=O)O [compound 6]
- pest or weed control at 500 ppm (citrus melanose; [4]): 68%
- Extent infection (citrus melanose): 17%
- Average number of disease lesions per leaf [1, 5]: 6.6
- pest or weed control at 500 ppm [2]: 80%

SMILES: CCCCCCCCCCCC(=O)N[C@@H](CC(=O)O)C(=O)O [compound 10]
- pest or weed control at 500 ppm (citrus melanose; [4]): 74%
- Extent infection (citrus melanose): 14%
- Average number of disease lesions per leaf [1, 5]: 11.6
- pest or weed control at 500 ppm [2]: 65%
